Laboratory results taken from BindingDB's records for doi:10.1021/jm800138h (Gsk, 2008).

Legend:
Experiment in all cases: Enzyme Inhibition Assay
[1] = molecular target: Beta-secretase 1 (Homo sapiens, UniProt P56817); details: pH 4.5; 22 °C
Procedure: (§1) Enzyme activity and inhibition were assayed using a fluorescent FAM-[SEVNLDAEFK]-TAMRA substrate. Control reactions with no enzyme were included in each assay. Quantification of substrate cleavage was assessed using an LJL analyst spectrophotometer (485nm excitation, 535nm emission).

[2] = molecular target: Cathepsin D (Homo sapiens, UniProt P07339)
Chain of Cathepsin D (P07339 65-162 limits assumed): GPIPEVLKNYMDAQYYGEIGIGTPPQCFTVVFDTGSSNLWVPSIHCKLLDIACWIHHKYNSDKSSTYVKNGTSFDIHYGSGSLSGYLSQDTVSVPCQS
Chain of Cathepsin D (P07339 169-412 limits assumed): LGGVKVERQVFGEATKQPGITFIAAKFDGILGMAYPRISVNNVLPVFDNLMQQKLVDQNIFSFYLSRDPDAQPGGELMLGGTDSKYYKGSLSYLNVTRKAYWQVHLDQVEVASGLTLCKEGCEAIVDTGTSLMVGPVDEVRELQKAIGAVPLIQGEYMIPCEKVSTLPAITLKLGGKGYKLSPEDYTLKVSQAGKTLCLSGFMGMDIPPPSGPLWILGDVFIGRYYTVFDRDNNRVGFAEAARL
Procedure: as §1

[3] = molecular target: T1, Beta-secretase 2 (Homo sapiens, UniProt Q9Y5Z0); details: pH 4.5; 22 °C
T1 sequence (Q9Y5Z0 whole entry): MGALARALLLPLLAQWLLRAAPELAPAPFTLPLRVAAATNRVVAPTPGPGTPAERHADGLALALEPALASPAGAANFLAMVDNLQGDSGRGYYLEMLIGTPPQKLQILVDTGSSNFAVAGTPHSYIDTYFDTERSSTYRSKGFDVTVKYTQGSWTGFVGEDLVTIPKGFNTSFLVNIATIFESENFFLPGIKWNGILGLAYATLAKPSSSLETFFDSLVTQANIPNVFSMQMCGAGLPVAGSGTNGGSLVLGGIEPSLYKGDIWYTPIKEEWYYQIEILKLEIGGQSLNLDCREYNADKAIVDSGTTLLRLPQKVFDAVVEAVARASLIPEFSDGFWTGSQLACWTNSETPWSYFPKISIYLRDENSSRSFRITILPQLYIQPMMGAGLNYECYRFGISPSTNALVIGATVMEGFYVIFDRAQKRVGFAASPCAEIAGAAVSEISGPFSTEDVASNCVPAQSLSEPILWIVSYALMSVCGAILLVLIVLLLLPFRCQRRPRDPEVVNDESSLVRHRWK
Procedure: as §1

Chain of Beta-secretase 1 (P56817 whole entry): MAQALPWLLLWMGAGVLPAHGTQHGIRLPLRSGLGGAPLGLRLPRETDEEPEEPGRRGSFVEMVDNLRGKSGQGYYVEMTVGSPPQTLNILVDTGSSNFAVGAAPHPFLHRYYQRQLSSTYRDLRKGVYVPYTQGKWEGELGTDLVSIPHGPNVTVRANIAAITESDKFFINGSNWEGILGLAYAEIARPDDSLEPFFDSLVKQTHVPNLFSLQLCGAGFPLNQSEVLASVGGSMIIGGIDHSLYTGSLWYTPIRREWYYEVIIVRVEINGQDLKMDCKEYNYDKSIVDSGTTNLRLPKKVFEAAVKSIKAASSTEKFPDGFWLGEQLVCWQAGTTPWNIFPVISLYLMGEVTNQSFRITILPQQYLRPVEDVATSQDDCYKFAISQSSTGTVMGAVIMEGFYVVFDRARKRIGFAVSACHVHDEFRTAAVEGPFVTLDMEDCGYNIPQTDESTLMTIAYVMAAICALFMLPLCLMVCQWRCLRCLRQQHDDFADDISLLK

SMILES	IC50 [1]	IC50 [2]	IC50 [3]
CCNc1cc(C(=O)N[C@@H](Cc2ccccc2)[C@H](O)CNC)cc(N2CCCCS2(=O)=O)c1 [3-(1,1-dioxo-1,2-thiazinan-2-yl)-5-(ethylamino)-N-[(2S,3R)-3-hydroxy-4-(methylamino)-1-phenylbutan-2-yl]benzamide]	140 nM	> 100000 nM	–
CCc1cn2c3c(cc(C(=O)N[C@@H](Cc4ccccc4)[C@H](O)CNC4CCCCC4)cc13)N(C)S(=O)(=O)CC2 [BMCL193669 Compound 26]	9 nM	660 nM	210 nM
CCNc1cc(C(=O)N[C@@H](Cc2ccccc2)[C@H](O)CNC2CCCCC2)cc(N2CCCCS2(=O)=O)c1 [N-[(2S,3R)-4-(cyclohexylamino)-3-hydroxy-1-phenylbutan-2-yl]-3-(1,1-dioxo-1,2-thiazinan-2-yl)-5-(ethylamino)benzamide]	69 nM	2340 nM	4370 nM
CCNc1cc(C(=O)N[C@@H](Cc2ccccc2)[C@H](O)CNC(C)(C)CCCC(C)C)cc(N2CCCCS2(=O)=O)c1 [N-[(2S,3R)-4-[(2,6-dimethylheptan-2-yl)amino]-3-hydroxy-1-phenylbutan-2-yl]-3-(1,1-dioxo-1,2-thiazinan-2-yl)-5-(ethylamino)benzamide]	30 nM	5250 nM	7940 nM
CCc1cn2c3c(cc(C(=O)N[C@@H](Cc4ccccc4)[C@H](O)CNC(C)(C)CCCC(C)C)cc13)N(C)S(=O)(=O)CC2 [N-[(2S,3R)-4-[(2,6-dimethylheptan-2-yl)amino]-3-hydroxy-1-phenylbutan-2-yl]-3-ethyl-9-methyl-10,10-dioxo-10-thia-1,9-diazatricyclo[6.4.1.0^{4,13}]trideca-2,4(13),5,7-tetraene-6-carboxamide]	5 nM	1000 nM	114 nM
